In brackets after ≈: the same amount, converted by molar mass.
Tests used:
[1] = tested on: Staphylococcus aureus (ATCC29213); assay: In-vitro anti-bacterial microtitre plate assay, IC90 determination (STA 1 B29213); format: cell-based; settings: 90% inhibitory concentration for bacterial growth, 37° C., resazurin fluorescence; for IC90 values STA 1 B29213: 24 hours; for IC90: Staphylococcus aureus, ATCC29213, 24 h
Method: (§1) The bacteria used in this study were grown overnight in flasks containing 100 ml Mueller-Hinton Broth (Becton Dickinson—cat. no. 275730) in sterile de-ionized water, with shaking, at 37° C. Stocks (0.5 ml/tube) were stored at −70° C. until use. Bacteria titrations were performed in microtiter plates to detect the TCID50, in which the TCID50 represents the dilution that gives rise to bacterial growth in 50% of inoculated cultures.
(§2) In general, an inoculum level of approximately 100 TCID50 was used for susceptibility testing.
(§3) Flat-bottom, sterile 96-well plastic microtiter plates were filled with 180 μl of sterile deionized water, supplemented with 0.25% BSA. Subsequently, stock solutions (7.8× final test concentration) of compounds were added in 45 μl volumes in column 2. Serial five-fold dilutions (45 μl in 180 μl) were made directly in the microtiter plates from column 2 to reach column 11. Untreated control samples with (column 1) and without (column 12) inoculum were included in each microtiter plate. Depending on the bacteria type, approximately 10 to 60 CFU per well of bacteria inoculum (100 TCID50), in a volume of 100 μl in 2.8× Mueller-Hinton broth medium, was added to the rows A to H, except column 12. The same volume of broth medium without inoculum was added to column 12 in row A to H. The cultures were incubated at 37° C. for 24 hours under a normal atmosphere (incubator with open air valve and continuous ventilation). At the end of incubation, one day after inoculation, the bacterial growth was quantitated fluorometrically. Therefore resazurin (0.6 mg/ml) was added in a volume of 20 μl to all wells 3 hours after inoculation, and the plates were re-incubated overnight. A change in colour from blue to pink indicated the growth of bacteria. The fluorescence was read in a computer-controlled fluorometer (Cytofluor Biosearch) at an excitation wavelength of 530 nm and an emission wavelength of 590 nm. The % growth inhibition achieved by the compounds was calculated according to standard methods.
(§4) STA 29213 means Staphylococcus aureus (ATCC29213); SPN 6305 means Streptococcus pneumoniae (ATCC6305); MSM 607 means M. Smegmatis (ATCC607); ATCC means […].

[2] = tested on: Streptococcus pneumoniae (ATCC6305); assay: In-vitro anti-bacterial microtitre plate assay, IC90 determination (SPN 1 6305); format: cell-based; settings: 90% inhibitory concentration for bacterial growth, 37° C., resazurin fluorescence; for IC90 values SPN 1 6305: 24 hours; for IC90: Streptococcus pneumoniae, ATCC6305, 24 h
Method: as §1, §2, §3, §4

M. Smegmatis (ATCC607) = assay: In-vitro anti-bacterial activity against strain M. Smegmatis ATCC607; format: cell-based; settings: 90% inhibitory concentration for bacterial growth, 37° C., Alamar Blue fluorescence; for IC90 values MSM 1 ATCC607: 48 hours; for IC90: Mycolicibacterium smegmatis, ATCC607, 48 h, read-out: IC90 values MSM 1 ATCC607
Method: Flat-bottom, sterile 96-well plastic microtiter plates were filled with 180 μl of sterile deionized water, supplemented with 0.25% BSA. Subsequently, stock solutions (7.8× final test concentration) of compounds were added in 45 μl volumes to a series of duplicate wells in column 2 so as to allow evaluation of their effects on bacterial growth. Serial five-fold dilutions (45 μl in 180 μl) were made directly in the microtiter plates from column 2 to 11 using a customised robot system (Zymark Corp., Hopkinton, Mass.). Pipette tips were changed after every 3 dilutions to minimize pipetting errors with high hydrophobic compounds. Untreated control samples with (column 1) and without (column 12) inoculum were included in each microtiter plate. Approximately 250 CFU per well of bacteria inoculum, in a volume of 100 μl in 2.8× Mueller-Hinton broth medium, was added to the rows A to H, except column 12. The same volume of broth medium without inoculum was added to column 12 in row A to H. The cultures were incubated at 37° C. for 48 hours in a humidified 5% CO2 atmosphere (incubator with open air valve and continuous ventilation). At the end of incubation, two days after inoculation, the bacterial growth was quantitated fluorometrically. Therefore Alamar Blue (10×) was added to all wells in a volume of 20 μl and plates were incubated for another 2 hours at […]
The fluorescence was read in a computer-controlled fluorometer (Cytofluor, Biosearch) at an excitation wavelength of 530 nm and an emission wavelength of 590 nm (gain 30).
as §4

Structure (SMILES)	IC90 values STA 1 B29213 [1]	IC90 values SPN 1 6305 [2]	IC90 values MSM 1 ATCC607 (M. Smegmatis (ATCC607))	melting point	IC90 [1]	IC90 (M. Smegmatis (ATCC607))	IC90 [2]
COc1nc2ccc(Br)cc2cc1C(c1ccccc1)C(O)(CCCCN(C)C)COc1ccccc1 (single isomer, unassigned) [Compound 2]	4.5 µg/mL (≈ 7.99 µM)	2.2 µg/mL (≈ 3.9 µM)	1.8 µg/mL (≈ 3.19 µM)	151 °C	–	–	–
COc1nc2ccc(Br)cc2cc1C(c1ccccc1)C(O)(CCCCN(C)C)COc1ccccc1 (single isomer, unassigned) [Compound 1]	–	8.9 µg/mL (≈ 15.8 µM)	–	148 °C	8.9 µg/mL (≈ 15.8 µM)	2.2 µg/mL (≈ 3.9 µM)	–
COc1nc2ccc(Br)cc2cc1C(c1ccc(Cl)cc1)C(O)(CCCCN(C)C)COc1ccccc1 (single isomer, unassigned) [Compound 4]	1.9 µg/mL (≈ 3.18 µM)	2.4 µg/mL (≈ 4.01 µM)	1.9 µg/mL (≈ 3.18 µM)	118 °C	–	–	–
COc1nc2ccc(Br)cc2cc1C(c1ccccc1)C(O)(CCCCN(C)C)COc1ccc(C)cc1 (single isomer, unassigned) [Compound 5]	4.1 µg/mL (≈ 7.1 µM)	–	–	146 °C	–	1.8 µg/mL (≈ 3.12 µM)	4.1 µg/mL (≈ 7.1 µM)
COc1nc2ccccc2cc1C(c1ccc(-c2ccoc2)cc1)C(O)(CCCCN(C)C)c1ccc2ccccc2c1 (single isomer, unassigned) [Compound 13]	1.8 µg/mL (≈ 3.15 µM)	2.0 µg/mL (≈ 3.5 µM)	1.3 µg/mL (≈ 2.28 µM)	197 °C	–	–	–
COc1nc2ccc(Br)cc2cc1C(c1ccccc1)C(O)(CCCCN1CCN(C)CC1)COc1ccc(C)cc1 (single isomer, unassigned) [Compound 24]	39.9 µg/mL (≈ 63.1 µM)	10.0 µg/mL (≈ 15.8 µM)	10.0 µg/mL (≈ 15.8 µM)	168 °C	–	–	–
COc1nc2ccc(Br)cc2cc1C(c1ccc2c(c1)OCO2)C(O)(CCN(C)C)c1ccccc1 (single isomer, unassigned) [Compound 30]	55.0 µg/mL (≈ 100 µM)	1.7 µg/mL (≈ 3.09 µM)	0.4 µg/mL (≈ 0.728 µM)	159 °C	–	–	–
COc1nc2ccccc2cc1C(c1ccc(-c2ccncc2)cc1)C(O)(CCCCN(C)C)c1ccc2ccccc2c1 (single isomer, unassigned) [Compound 48]	1.84 µg/mL (≈ 3.16 µM)	–	1.04 µg/mL (≈ 1.79 µM)	210 °C	–	–	–
COc1nc2ccc(Br)cc2cc1C(c1ccccc1)C(O)(CCCCN1CCCCC1)COCc1ccccc1 (single isomer, unassigned) [Compound 25]	2.5 µg/mL (≈ 4.05 µM)	2.0 µg/mL (≈ 3.24 µM)	2.0 µg/mL (≈ 3.24 µM)	–	–	–	–
COc1nc2ccccc2cc1C(c1ccc(-c2cccnc2)cc1)C(O)(CCCCN(C)C)c1ccc2ccccc2c1 (single isomer, unassigned) [Compound 7b]	1.8 µg/mL (≈ 3.09 µM)	1.85 µg/mL (≈ 3.18 µM)	1.5 µg/mL (≈ 2.58 µM)	–	–	–	–
COc1nc2ccc(Br)cc2cc1C(c1ccccc1)C(O)(CCCCN(C)C)c1cccc(-c2ccc(C)cc2)c1 (single isomer, unassigned) [Compound 40]	–	–	7.85 µg/mL (≈ 12.6 µM)	–	1.97 µg/mL (≈ 3.16 µM)	–	1.97 µg/mL (≈ 3.16 µM)
COc1nc2ccc(Br)cc2cc1C(c1ccccc1)C(O)(CCCCN(C)C)c1cccc(-c2ccccc2)c1 (single isomer, unassigned) [Compound 32]	1.93 µg/mL (≈ 3.17 µM)	1.93 µg/mL (≈ 3.17 µM)	0.97 µg/mL (≈ 1.59 µM)	–	–	–	–
COc1ccc(-c2cccc(C(O)(CCCCN(C)C)C(c3ccccc3)c3cc4cc(Br)ccc4nc3OC)c2)cc1 (single isomer, unassigned) [Compound 38]	–	–	10.14 µg/mL (≈ 15.9 µM)	–	2.02 µg/mL (≈ 3.16 µM)	–	2.02 µg/mL (≈ 3.16 µM)
COc1nc2ccccc2cc1C(c1ccc(-c2cccnc2)cc1)C(O)(CCCCN(C)C)c1ccc2ccccc2c1 (single isomer, unassigned) [Compound 7]	–	–	–	–	1.8 µg/mL (≈ 3.09 µM)	1.8 µg/mL (≈ 3.09 µM)	1.8 µg/mL (≈ 3.09 µM)
COc1nc2ccc(Br)cc2cc1C(c1ccccc1)C(O)(CCCCN(C)C)c1cccc(-c2ccccc2)c1 (single isomer, unassigned) [Compound 31]	–	0.86 µg/mL (≈ 1.41 µM)	–	–	1.93 µg/mL (≈ 3.17 µM)	1.93 µg/mL (≈ 3.17 µM)	–
COc1nc2ccc(Br)cc2cc1C(c1ccccc1)C(O)(CCCCN1CCN(C)CC1)COc1ccc(C)cc1 (single isomer, unassigned) [Compound 23]	2.0 µg/mL (≈ 3.16 µM)	2.0 µg/mL (≈ 3.16 µM)	2.0 µg/mL (≈ 3.16 µM)	–	–	–	–
COc1nc2ccc(Br)cc2cc1C(c1ccc2c(c1)OCO2)C(O)(CCN(C)C)c1ccccc1 (single isomer, unassigned) [Compound 29]	3.1 µg/mL (≈ 5.64 µM)	0.4 µg/mL (≈ 0.728 µM)	1.7 µg/mL (≈ 3.09 µM)	–	–	–	–
COc1nc2ccccc2cc1C(c1ccc(-c2cnn(C)c2)cc1)C(O)(CCCCN(C)C)c1ccc2ccccc2c1 (single isomer, unassigned) [Compound 11]	1.9 µg/mL (≈ 3.25 µM)	1.9 µg/mL (≈ 3.25 µM)	1.9 µg/mL (≈ 3.25 µM)	–	–	–	–
COc1nc2ccccc2cc1C(c1cccc(-c2ccncc2)c1)C(O)(CCCCN(C)C)c1ccc2ccccc2c1 (single isomer, unassigned) [Compound 9]	1.8 µg/mL (≈ 3.09 µM)	1.8 µg/mL (≈ 3.09 µM)	1.5 µg/mL (≈ 2.58 µM)	–	–	–	–
COc1nc2ccc(Br)cc2cc1C(c1ccccc1)C(O)(CCCCN1CCN(C)CC1)COCc1ccccc1 (single isomer, unassigned) [Compound 27]	4.5 µg/mL (≈ 7.11 µM)	2.2 µg/mL (≈ 3.48 µM)	2.0 µg/mL (≈ 3.16 µM)	–	–	–	–
COc1nc2ccc(Br)cc2cc1C(c1ccc(Cl)cc1)C(O)(CCCCN(C)C)COc1ccccc1 (single isomer, unassigned) [Compound 3]	9.5 µg/mL (≈ 15.9 µM)	11.9 µg/mL (≈ 19.9 µM)	–	–	–	1.7 µg/mL (≈ 2.84 µM)	–
COc1nc2ccc(Br)cc2cc1C(c1ccoc1)C(O)(CCc1ccc(F)cc1)CCN(C)C (single isomer, unassigned) [Compound 53]	–	–	–	122 °C	8.58 µg/mL (≈ 15.8 µM)	1.71 µg/mL (≈ 3.16 µM)	–

Reference: patent publication US8293732B2, “Antibacterial quinoline derivatives” (Janssen Pharmaceutica N.V., priority 2006, dated 2012)
